In patent US20250115595A1, “INHIBITORS OF HYPOXIA-INDUCIBLE FACTORS” (The Johns Hopkins University, priority 2021, published 2025):

Experiments:
[1] = Mouse pharmacokinetics in neurosensory retina after intraocular injection; assay type: in vivo
Protocol: Pharmacokinetic analysis of 32-134D in the neurosensory retina following intraocular administration was determined by liquid chromatography and tandem mass spectrometry (LC-MS/MS) to quantify the concentration of 32-134D in retinal tissue over 14 days following a single 70-ng intraocular injection of 32-134D (see Methods of all parameters). […] The total exposure (area under the curve or AUClast) was 72.3 nmol*day/g.
Mouse pharmacokinetics: C57BL/6 mice were administered 32-134D at 70 ng or 280 ng as a single intraocular injection. Mice (at least 3 mice per time point) were euthanized at 1, 3, 7, or 14 days after injection. For the 280-ng dose, a 10-day time point was added. 32-134D was quantified in retina by LC-MS/MS as previously described (S. Salman et al., 2022, J Clin Invest 132) with the following modifications. Retina tissue samples were homogenized in […] of 1×PBS (pH 7.4) before extraction. The standard curve and quality control samples were prepared in 1×PBS as a surrogate matrix. Retina tissue samples were then quantitated in nmol/g as: nominal concentration (nM)×initial dilution ([tissue weight (mg)+volume of solvent (μl)]/tissue weight (mg)). For all samples <10 nM, the value was reported as below the limits of detection. If at least on samples was >10 nM and one was <10 nM, then one half that value (5 nM) was imputed to calculate the concentration for that specimen and utilized in the average and standard deviation calculations.
Pharmacokinetic parameters: These were calculated from mean concentration-time data using noncompartmental methods in Phoenix WinNonlin version 8.3 (Certara, Princeton, NJ, USA). The Cmax and time to Cmax (Tmax) were the observed values. The AUClast was calculated using the log-linear trapezoidal method to the last quantifiable time point. The λz was determined from at least 3 points on the slope of the terminal phase of the concentration-time profile using a 1/y2 weighting factor. The T1/2 was determined by dividing 0.693 by […]. T1/2 was not reported if the correlation coefficient (r2) for λz was less than 0.9.
Bioanalytical method for mouse pharmacokinetics: Retina tissue samples were homogenized in 200 μL of 1×PBS (pH 7.4) before extraction. The standard curve and quality control samples were prepared in 1×PBS as a surrogate matrix for all matrices. Tissue homogenate or PBS (25 μL) was added to a borosilicate glass test tube and mixed with 150 μL of acetonitrile containing the internal standard (1 ng/mL of EXP-3179). For blank samples, 150 μL of acetonitrile was added without internal standard. Samples were vortex-mixed and centrifuged (1200×g for 5 minutes at ambient temperature) and transferred to an autosampler vial. […] The column effluent was monitored using an AB Sciex Triple Quadrupole 5500 mass spectrometer. […]

[2] = tested on: HIF-regulated angiogenic genes; experiment: mRNA expression in hypoxic HUVECs; assay type: cell-based, human; conditions: 1 or 10 μM, 4 hours
Description: Vascular endothelial cells also secrete angiogenic mediators that contribute to the progression of diabetic eye disease (Y. Qin et al., Sci Adv 8, eabm1896 (2022)). Exposure of human umbilical vein endothelial cells (HUVECs) to hypoxia induced HIF-1α and HIF-2α protein accumulation, which was inhibited by 32-134D (FIG. 30). […] Of note, ANGPT2 and VE-PTP, two emerging targets for the treatment of diabetic eye disease, are both expressed specifically by vascular cells (G. Fachinger, et al., Oncogene 18, 5948-5953 (1999); P. C. Maisonpierre et al., Science 277, 55-60 (1997)).
Reverse transcription and quantitative real-time PCR: Total RNA was isolated from cultured cells or retinas with PureLink™ RNA Mini Kit (Invitrogen #12183025), and cDNA was prepared with MuLV Reverse Transcriptase (Applied Biosystems). Quantitative real-time PCR was performed with Power SYBR Green PCR Master Mix (Applied Biosystems) and MyiQ Real-Time PCR Detection System (Bio-Rad). Normalization was done using cyclophilin A for mouse tissue and human cell lines.

## Brc1ccc2c(-c3csc(-c4c[nH]c5c(Br)cccc45)n3)c[nH]c2c1 [Compound 32-134D, 4-(6-bromo-1H-indol-3-yl)-2-(7-bromo-1H-indol-3-yl)thiazole]
[1]; single 70-ng intraocular injection
  time retina concentration exceeded in vitro IC50 of 3.5 μM: 5.25 days
[1]; single 70-ng intraocular injection, 14 days
  total exposure (AUClast) in neurosensory retina: 72.3 nmol·days/g
[1]; single intraocular injection 280 ng
  terminal half-life (T1/2) in retina: 43.2 h
[1]; single intraocular injection 280 ng, through 14 days
  AUClast in neurosensory retina: 147 nmol·days/g
[2]
  hypoxia-increased ANGPT2 and VEPTP mRNA expression: inhibited
  hypoxia-induced VEGF and ANGPTL4 mRNA expression: effectively inhibited
